The numbers were not newly measured in patent US20120220630A1, “PRUCALOPRIDE ORAL SOLUTION” (Shire-Movetis NV, priority 2011, published 2012), which cites them from elsewhere.

In one series the target is 5-HT2A receptors (Homo sapiens, UniProt P28223).
For a further series, the target named is 5-HT4 receptors (Homo sapiens, UniProt Q13639).
The subject of series [1] is colonic motility and defecation. As to conditions: in animals.

Chain of 5-HT4 receptors (Q13639 whole entry): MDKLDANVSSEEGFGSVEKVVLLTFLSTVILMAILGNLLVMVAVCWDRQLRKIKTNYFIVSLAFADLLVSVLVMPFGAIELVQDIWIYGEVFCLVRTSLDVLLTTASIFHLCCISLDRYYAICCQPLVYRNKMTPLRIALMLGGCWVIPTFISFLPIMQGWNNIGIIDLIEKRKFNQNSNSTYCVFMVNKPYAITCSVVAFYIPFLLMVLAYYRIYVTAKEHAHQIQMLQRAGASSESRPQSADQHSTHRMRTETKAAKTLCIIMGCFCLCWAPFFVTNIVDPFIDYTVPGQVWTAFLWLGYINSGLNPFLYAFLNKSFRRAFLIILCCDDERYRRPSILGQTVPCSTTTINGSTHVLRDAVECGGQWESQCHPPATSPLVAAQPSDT
Chain of 5-HT2A receptors (P28223 whole entry): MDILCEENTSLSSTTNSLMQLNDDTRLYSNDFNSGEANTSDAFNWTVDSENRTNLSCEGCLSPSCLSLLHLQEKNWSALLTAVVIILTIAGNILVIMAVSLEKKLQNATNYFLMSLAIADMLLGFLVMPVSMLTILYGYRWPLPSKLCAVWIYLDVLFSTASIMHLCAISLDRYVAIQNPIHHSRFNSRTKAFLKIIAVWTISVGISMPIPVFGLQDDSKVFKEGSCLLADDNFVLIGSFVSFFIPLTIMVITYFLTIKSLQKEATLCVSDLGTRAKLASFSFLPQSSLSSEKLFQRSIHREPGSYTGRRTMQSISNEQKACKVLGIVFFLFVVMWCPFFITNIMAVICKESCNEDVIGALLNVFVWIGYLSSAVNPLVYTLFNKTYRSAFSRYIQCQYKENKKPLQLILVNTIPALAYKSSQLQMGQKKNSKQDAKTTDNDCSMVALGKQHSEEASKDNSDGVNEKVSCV

Consider `COCCCN1CCC(NC(=O)c2cc(Cl)c(N)c3c2OCC3)CC1` [Prucalopride, 4-amino-5-chloro-2,3-dihydro-N-[1-(3-methoxypropyl)-4-piperidinyl]-7-benzofuran-carboxamide], for which the “affinity for 5-HT2A receptors” value on 5-HT2A receptors is “no affinity”. Also, in the series on 5-HT3 receptors, the “affinity for 5-HT3 receptors” value is reported as “no affinity”. The “agonism of 5-HT4 receptors” value on 5-HT4 receptors is “potent and selective agonist”. Moreover, the “colonic motility and defecation” value in series [1] was “stimulates colonic motility and defecation”.
